The target of experiment [1] is T1, recombinant human A3 adenosine receptors (Homo sapiens, UniProt P0DMS8).
T1 construct: expressed in transfected cells; host or cells: HEK 293
T1 sequence (P0DMS8 1-318): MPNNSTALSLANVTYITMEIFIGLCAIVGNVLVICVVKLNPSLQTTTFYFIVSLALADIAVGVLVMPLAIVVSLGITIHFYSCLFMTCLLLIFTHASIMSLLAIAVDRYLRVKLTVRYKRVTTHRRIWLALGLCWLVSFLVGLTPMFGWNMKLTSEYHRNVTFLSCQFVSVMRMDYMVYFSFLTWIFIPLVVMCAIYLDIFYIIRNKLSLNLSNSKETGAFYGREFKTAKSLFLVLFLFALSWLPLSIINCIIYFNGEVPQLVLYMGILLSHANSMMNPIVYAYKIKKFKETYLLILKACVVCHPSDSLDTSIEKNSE
The experiment can be described thus: Radioligand binding, human A3 receptor ([125I]-AB-MECA), incl. one-point binding at 10 μM. The note with it: read-out: Percent (%) Inhibition at 10 μM Antagonist, A3.

In experiment [2] the target is T2, recombinant canine A3 adenosine receptors (Canis lupus familiaris, UniProt Q28309).
T2 construct: expressed in transfected cells
T2 sequence (Q28309 1-314): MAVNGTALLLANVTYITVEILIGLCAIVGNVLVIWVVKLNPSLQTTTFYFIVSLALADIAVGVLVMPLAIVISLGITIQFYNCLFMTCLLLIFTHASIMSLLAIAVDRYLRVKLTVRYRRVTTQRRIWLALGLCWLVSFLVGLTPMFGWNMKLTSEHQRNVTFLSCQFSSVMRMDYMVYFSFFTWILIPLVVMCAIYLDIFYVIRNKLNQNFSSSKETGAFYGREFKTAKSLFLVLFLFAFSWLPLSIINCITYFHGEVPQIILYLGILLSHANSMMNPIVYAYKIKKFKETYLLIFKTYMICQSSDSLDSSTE
The experiment is described as follows: Radioligand competition binding, canine A3 receptor (R-PIA), transfected HEK 293 membranes. The following applies: mean ± SEM, n = 3. Here is the method:
(§1) Membranes (40-70 μg membrane protein), radioligands, and varying concentrations of competing ligands were incubated in triplicate in 0.1 ml buffer HE plus 2 units/mL adenosine deaminase for 2.5 hours at 21° C. The radioligands used for competitive binding assays were: [^3H]-8-cyclopentyl-1,3-dipropyxanthine ([^3H]-DPCPX) (NEN, Boston, Mass.) for A1 and A2b adenosine receptors, [^3H]-4-(2-[7-amino-2-(furyl)(1,2,4)triazole(2,3-a)(1,3,5)triazin-5-ylaminoethyly)phenol ([^3H] ZM241385) for A2a adenosine receptors (Tocris, Bristol, UK), and [^125Iodine]-labeled N6-(4-aminobenzyl)-9-(5-(methylcarbonyl)-β-D-ribofuranosyl) adenine ([^125I]-AB-MECA) or [^3H]-R-N^6-phenylisopropyladenosine (H^3R]-R-PIA) for A3 adenosine receptors (both from NEN, Boston, Mass.). Nonspecific binding was measured in the presence of 10 μM 5′N ethylcarboxamidoadenosine (NECA, from RBI-Sigma, Natick, Mass.) for A1 and A2b receptors, or 10 μM xanthine amino congener (XAC, from RBI-Sigma, Natick, Mass.) for A2a receptors. Binding assays were terminated by filtration over Whatman GF/C glass fiber filters using a BRANDEL cell harvester (Gaithersburg, Md.). The-filters were rinsed three times with 3-4 mL ice-cold 10 mM Tris-HCl, pH 7.4 and 5 mM magnesium chloride (MgCl2) at 4° C., and were counted in a Wallac β-counter (Perkin Elmer, Boston, Mass.).
In general terms: In a radioligand displacement assay an active substance lowers the binding of a labelled ligand.

In experiment [3] the target is T3, recombinant human A2a adenosine receptors (Homo sapiens, UniProt P29274).
T3 construct: purchased PerkinElmer (Boston, Mass.); host or cells: HEK 293
T3 sequence (P29274 whole entry): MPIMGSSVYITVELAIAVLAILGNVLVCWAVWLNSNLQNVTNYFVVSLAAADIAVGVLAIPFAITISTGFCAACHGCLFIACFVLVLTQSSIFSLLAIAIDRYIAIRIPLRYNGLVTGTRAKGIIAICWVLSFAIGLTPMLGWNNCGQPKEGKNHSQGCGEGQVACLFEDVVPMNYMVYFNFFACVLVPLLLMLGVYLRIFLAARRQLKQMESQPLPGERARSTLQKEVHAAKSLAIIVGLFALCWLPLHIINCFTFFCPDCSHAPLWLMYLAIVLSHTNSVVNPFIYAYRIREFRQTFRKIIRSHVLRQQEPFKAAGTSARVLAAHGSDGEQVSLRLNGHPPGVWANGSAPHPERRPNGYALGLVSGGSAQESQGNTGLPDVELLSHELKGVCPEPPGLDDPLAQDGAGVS
The experiment can be described thus: Radioligand competitive binding, human A2a receptor ([3H]-ZM241385). Here is the method:
Binding assays were terminated by filtration.
as §1, with “Md.).” for “Md.). The-filters were rinsed three times with 3-4 mL ice-cold 10 mM Tris-HCl, pH 7.4 and 5 mM magnesium chloride (MgCl2) at 4° C., and were counted in a Wallac β-counter (Perkin Elmer, Boston, Mass.).”

The subject of experiment [4] is open-chest, barbital-anesthetized dogs. The experiment can be described thus: Protocol II (preconditioning): four 5-minute occlusion/reperfusion cycles before 60-minute occlusion and 3 hours reperfusion in dogs. The format is in vivo, dog. The protocol:
Preconditioning was elicited by four 5-minute occlusion/5-minute reperfusion cycles produced 10 minutes before the 60-minute occlusion.

Experiment [5] has the same test system. The experiment is described as follows: Protocol I (pretreatment): 60 minutes of coronary artery occlusion and 3 hours of reperfusion in dogs.
Description: (§2) The studies were performed in open-chest, barbital-anesthetized dogs instrumented to measure heart rate, blood pressure, left ventricular pressure, and regional myocardial blood flow (radioactive microspheres). A mechanical occluder was placed around a proximal portion of the left anterior descending coronary artery to produce ischemia and reperfusion. At the end of the experiments, infarct size was determined-by histochemical staining (patent blue dye and triphenyltetrazolium) and expressed as a percentage of the region at risk or as a percentage of the entire left ventricle.
In the pretreatment protocol (see FIG. 1, protocol I), the dogs were subjected to 60 minutes of coronary artery occlusion and 3 hours or reperfusion after which the hearts were removed and infarct size was assessed. […] All of the antagonists were administered at a dose of 1 mg/kg as an i.v. bolus followed by and infusion of 10 μg/kg/min continued until immediately before reperfusion (70 minutes total).
Experiment [6] has the same test system. The experiment can be described thus: Protocol III (reperfusion): 60 minutes occlusion and 3 hours reperfusion, drug from 10 minutes before release of occlusion, dogs. The format is in vivo, dog.
Description: as §2
In the reperfusion protocol (see FIG. 3, protocol III), the dogs were subjected to 60 minutes of coronary artery occlusion followed by three hours of reperfusion. […] The antagonists were administered at a dose of 1 mg/kg i.v. bolus followed by an infusion of 10 μg/kg/min for one hour.
The target in experiment [7] is T4, recombinant canine A1 adenosine receptors (Canis lupus familiaris, UniProt P11616).
T4 construct: expressed in transfected cells
T4 sequence (P11616 1-326): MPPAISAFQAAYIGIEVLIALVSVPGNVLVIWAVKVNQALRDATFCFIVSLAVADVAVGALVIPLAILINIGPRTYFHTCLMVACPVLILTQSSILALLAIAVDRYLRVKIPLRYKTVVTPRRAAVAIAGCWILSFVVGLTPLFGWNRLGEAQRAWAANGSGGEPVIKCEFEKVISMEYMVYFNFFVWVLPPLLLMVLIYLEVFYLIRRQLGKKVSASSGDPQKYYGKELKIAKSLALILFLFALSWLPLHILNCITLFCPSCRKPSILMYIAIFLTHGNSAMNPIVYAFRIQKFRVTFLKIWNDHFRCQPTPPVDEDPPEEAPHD
The experiment can be described thus: Radioligand competition binding, canine A1 receptor (3H-CPX), transfected HEK 293 membranes. Here is the method: as §1, with “Md.).” for “Md.). The-filters were rinsed three times with 3-4 mL ice-cold 10 mM Tris-HCl, pH 7.4 and 5 mM magnesium chloride (MgCl2) at 4° C., and were counted in a Wallac β-counter (Perkin Elmer, Boston, Mass.).”

As for `CCCn1c(=O)c2[nH]c(C34CCC(CCC(=O)O)(CC3)CC4)nc2n(CCC)c1=O` [BG 9928, 3-[4-(2,6-dioxo-1,3-dipropyl-2,3,6,7-tetrahydro-1H-purin-8-yl)-bicyclo[2.2.2]oct-1-yl]-propionic acid], the inhibition (as a rule, the relative decrease from the control value, in per cent) at 10 µM in experiment [1] was 30%. Further, the Ki (in general, the equilibrium dissociation constant of an inhibitor or competing ligand from its target) in experiment [2] came to 37.7 µM; in experiment [3] it was 4.06 µM; in experiment [7] it was 0.0289 ± 0.0041 µM. Further, the “Addition to the protective effect of ischemic preconditioning” value in experiment [4] (Protocol II) is listed as “added to the protective effect”. Also, the “Relationship between infarct size and collateral blood flow compared to preconditioned control” value in experiment [4] (Protocol II (preconditioning)) is reported as “shifted downward further”. Moreover, the “Effect on the protective effects of ischemic preconditioning” value in experiment [4] (Protocol II, 1 mg/kg i.v. bolus + 10 μg/kg/min) is given as “did not block”. Moreover, the “Relationship between infarct size and transmural collateral blood flow compared to control group” value in experiment [5] is given as “shifted downward”. Further, the “Infarct size (percentage of risk region or of left ventricle) compared with control, in words” value in experiment [5] (1 mg/kg i.v. bolus + 10 μg/kg/min from 10 minutes before occlusion, 1 mg/kg) is on record as “significantly smaller”. For the same compound, the Infarct size reduction in experiment [5] (1 mg/kg i.v. bolus + 10 μg/kg/min from 10 minutes before occlusion, vs control) is reported as 49%. Also, the “Infarct size expressed as a percentage of the entire left ventricle, in words” value in experiment [6] is reported as “a significant reduction in infarct size was not observed”. Besides, the “Relationship between infarct size and collateral blood flow compared to control group” value in experiment [6] was “shifted downward”. Further, the “Reduction in infarct size (percentage of the risk region)” value in experiment [6] (1 mg/kg i.v. bolus + 10 μg/kg/min for one hour from 10 minutes before release of occlusion) is 44%. Moreover, the “Infarct size expressed as a percentage of the risk region, in words” value in experiment [6] (administration during the early phase of reperfusion) was “reduced significantly”.

(Values after patent publication US20050203065A1, “Method of treating ischemia reperfusion injury using adenosine receptor antagonists” (priority 2002, published 2005).)
